Reference: ChEMBL document CHEMBL3880420, “1,5-Diaryl-2-alkylpyrrole-3-Substituted Nitro Esters, Selective COX-2 Inhibitors and Nitric Oxide Donors” (2013)
Active and inactive are the calls of the source. No cut-off for these calls is given here.

target: T1, Prostaglandin G/H synthase 1 (Mus musculus) (UniProt P22437); experiment: Inhibition of COX1 in mouse J774 cells using arachidonic acid as substrate assessed as decrease in PGE2 production at 10 uM preincubated for 15 mins followed by substrate addition measured after 30 mins by radioimmunoassay relative to control; assay type: cell-based; details: not given
T1 sequence (whole entry): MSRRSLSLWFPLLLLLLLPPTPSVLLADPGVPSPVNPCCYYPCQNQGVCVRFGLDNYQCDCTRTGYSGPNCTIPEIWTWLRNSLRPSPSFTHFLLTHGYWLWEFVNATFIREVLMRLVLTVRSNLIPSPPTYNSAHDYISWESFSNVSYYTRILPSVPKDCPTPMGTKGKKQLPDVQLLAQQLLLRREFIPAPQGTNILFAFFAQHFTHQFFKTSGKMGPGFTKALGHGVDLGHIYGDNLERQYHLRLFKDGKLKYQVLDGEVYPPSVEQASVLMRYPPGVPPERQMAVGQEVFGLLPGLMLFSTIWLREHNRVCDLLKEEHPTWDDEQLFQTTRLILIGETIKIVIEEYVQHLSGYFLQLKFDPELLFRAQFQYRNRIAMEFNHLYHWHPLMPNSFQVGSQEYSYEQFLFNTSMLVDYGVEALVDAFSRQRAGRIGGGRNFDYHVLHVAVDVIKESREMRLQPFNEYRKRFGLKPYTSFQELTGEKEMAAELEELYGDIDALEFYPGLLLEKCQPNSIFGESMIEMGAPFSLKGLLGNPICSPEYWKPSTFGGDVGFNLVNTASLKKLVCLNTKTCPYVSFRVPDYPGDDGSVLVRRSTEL

**Q.** Which inhibition does the source give for `Cc1c(CCOCCO[N+](=O)[O-])cc(-c2ccc(S(C)(=O)=O)cc2)n1-c1ccccc1` here?
**A.** < 20%

**Q.** For `Cc1c(CC(=O)NC(CCO[N+](=O)[O-])C(=O)O)cc(-c2ccc(S(C)(=O)=O)cc2)n1-c1cccc(F)c1` (racemic), which inhibition is on record?
**A.** < 20%

**Q.** For `Cc1c(CC(=O)NCCCO)cc(-c2ccc(S(C)(=O)=O)cc2)n1-c1ccc(F)cc1`, which inhibition is on record?
**A.** < 20%

**Q.** With `Cc1c(CC(=O)NCCO)cc(-c2ccc(S(C)(=O)=O)cc2)n1-c1cccc(F)c1` as the molecule, how does the inhibition read?
**A.** < 20%

**Q.** For `Cc1c(CCOCCO)cc(-c2ccc(S(C)(=O)=O)cc2)n1-c1ccc(F)cc1`, which inhibition is on record?
**A.** < 20%

**Q.** With `Cc1c(CC(=O)NCCO[N+](=O)[O-])cc(-c2ccc(S(C)(=O)=O)cc2)n1-c1ccc(F)cc1` as the molecule, how does the inhibition read?
**A.** < 20%

**Q.** For `Cc1c(CC(=O)N[C@@H](CO[N+](=O)[O-])C(=O)O)cc(-c2ccc(S(C)(=O)=O)cc2)n1-c1cccc(F)c1`, which inhibition is on record?
**A.** < 20%

**Q.** Which inhibition does the source give for `Cc1c(CC(=O)OCCO[N+](=O)[O-])cc(-c2ccc(S(C)(=O)=O)cc2)n1-c1ccccc1` here?
**A.** < 20%

**Q.** For `CSc1ccc(-n2c(-c3ccc(S(C)(=O)=O)cc3)cc(CC(=O)OCCCO)c2C)cc1`, which inhibition is on record?
**A.** < 20%

**Q.** For `COc1ccc(-n2c(-c3ccc(S(C)(=O)=O)cc3)cc(CC(=O)OCCO[N+](=O)[O-])c2C)cc1`, which inhibition is on record?
**A.** < 20%

**Q.** Which inhibition does the source give for `CSc1ccc(-n2c(-c3ccc(S(C)(=O)=O)cc3)cc(CC(=O)OCCO[N+](=O)[O-])c2C)cc1` here?
**A.** < 20%

**Q.** With `Cc1c(C(N)C(=O)OCCCO[N+](=O)[O-])cc(-c2ccc(S(C)(=O)=O)cc2)n1-c1ccc(F)cc1` (racemic) as the molecule, how does the inhibition read?
**A.** < 20%

**Q.** For `Cc1c(CCOCCCO[N+](=O)[O-])cc(-c2ccc(S(C)(=O)=O)cc2)n1-c1cccc(F)c1`, which inhibition is on record?
**A.** < 20%

**Q.** Which inhibition does the source give for `Cc1c(CC(=O)N[C@@H](CO[N+](=O)[O-])C(=O)O)cc(-c2ccc(S(C)(=O)=O)cc2)n1-c1ccc(F)cc1` here?
**A.** < 20%

**Q.** Which inhibition does the source give for `COc1ccc(-n2c(-c3ccc(S(C)(=O)=O)cc3)cc(CC(=O)OCCCCO)c2C)cc1` here?
**A.** < 20%

**Q.** For `Cc1c(CC(=O)OCCO[N+](=O)[O-])cc(-c2ccc(S(C)(=O)=O)cc2)n1-c1cccc(F)c1`, which inhibition is on record?
**A.** < 20%

**Q.** With `Cc1c(CC(=O)OCCCCO[N+](=O)[O-])cc(-c2ccc(S(C)(=O)=O)cc2)n1-c1cccc(F)c1` as the molecule, how does the inhibition read?
**A.** < 20%

**Q.** For `Cc1c(CCOCCO[N+](=O)[O-])cc(-c2ccc(S(C)(=O)=O)cc2)n1-c1ccc(F)c(F)c1`, which inhibition is on record?
**A.** < 20%

**Q.** For `Cc1c(CC(=O)OCCCO[N+](=O)[O-])cc(-c2ccc(S(C)(=O)=O)cc2)n1-c1cccc(F)c1`, which inhibition is on record?
**A.** < 20%

**Q.** Which inhibition does the source give for `CSc1ccc(-n2c(-c3ccc(S(C)(=O)=O)cc3)cc(CC(=O)OCCCCO[N+](=O)[O-])c2C)cc1` here?
**A.** < 20%

**Q.** With `Cc1c(CCOCCCO[N+](=O)[O-])cc(-c2ccc(S(C)(=O)=O)cc2)n1-c1ccc(F)cc1` as the molecule, how does the inhibition read?
**A.** < 20%

**Q.** Which inhibition does the source give for `Cc1c(CC(=O)OCC(CO[N+](=O)[O-])O[N+](=O)[O-])cc(-c2ccc(S(C)(=O)=O)cc2)n1-c1ccccc1` (racemic) here?
**A.** < 20%

**Q.** For `COc1ccc(-n2c(-c3ccc(S(C)(=O)=O)cc3)cc(CC(=O)OCCCO)c2C)cc1`, which inhibition is on record?
**A.** < 20%

**Q.** Which inhibition does the source give for `Cc1c(CC(=O)NC(CCO)C(=O)O)cc(-c2ccc(S(C)(=O)=O)cc2)n1-c1ccc(F)cc1` (racemic) here?
**A.** < 20%

**Q.** Which inhibition does the source give for `Cc1c(CC(=O)OCCCCO)cc(-c2ccc(S(C)(=O)=O)cc2)n1-c1cccc(F)c1` here?
**A.** < 20%

**Q.** For `COc1ccc(-n2c(-c3ccc(S(C)(=O)=O)cc3)cc(CC(=O)OCCCCO[N+](=O)[O-])c2C)cc1`, which inhibition is on record?
**A.** < 20%

**Q.** For `Cc1c(C(N)C(=O)OCCO[N+](=O)[O-])cc(-c2ccc(S(C)(=O)=O)cc2)n1-c1ccc(F)cc1` (racemic), which inhibition is on record?
**A.** < 20%

**Q.** Which inhibition does the source give for `Cc1c(CC(=O)NC(CCO[N+](=O)[O-])C(=O)O)cc(-c2ccc(S(C)(=O)=O)cc2)n1-c1ccc(F)cc1` (racemic) here?
**A.** < 20%

**Q.** For `Cc1c(CCOCCCO)cc(-c2ccc(S(C)(=O)=O)cc2)n1-c1cccc(F)c1`, which inhibition is on record?
**A.** < 20%

**Q.** With `Cc1c(CCOCCO[N+](=O)[O-])cc(-c2ccc(S(C)(=O)=O)cc2)n1-c1cccc(F)c1` as the molecule, how does the inhibition read?
**A.** < 20%

**Q.** Which inhibition does the source give for `Cc1c(CC(=O)NCCO)cc(-c2ccc(S(C)(=O)=O)cc2)n1-c1ccc(F)cc1` here?
**A.** < 20%

**Q.** Which inhibition does the source give for `Cc1c(CC(=O)NCCCO)cc(-c2ccc(S(C)(=O)=O)cc2)n1-c1cccc(F)c1` here?
**A.** < 20%

**Q.** With `Cc1c(CCOCCO)cc(-c2ccc(S(C)(=O)=O)cc2)n1-c1cccc(F)c1` as the molecule, how does the inhibition read?
**A.** < 20%

**Q.** Which inhibition does the source give for `Cc1c(CC(=O)N[C@@H](CO)C(=O)O)cc(-c2ccc(S(C)(=O)=O)cc2)n1-c1ccc(F)cc1` here?
**A.** < 20%

**Q.** For `Cc1c(C(N)C(=O)OCCCCO[N+](=O)[O-])cc(-c2ccc(S(C)(=O)=O)cc2)n1-c1ccc(F)cc1` (racemic), which inhibition is on record?
**A.** < 20%

**Q.** With `Cc1c(CCOCCCO)cc(-c2ccc(S(C)(=O)=O)cc2)n1-c1ccc(F)cc1` as the molecule, how does the inhibition read?
**A.** < 20%

**Q.** For `Cc1c(CCOCCO)cc(-c2ccc(S(C)(=O)=O)cc2)n1-c1ccccc1`, which inhibition is on record?
**A.** < 20%

**Q.** For `Cc1c(CCOCCO[N+](=O)[O-])cc(-c2ccc(S(C)(=O)=O)cc2)n1-c1ccc(F)cc1`, which inhibition is on record?
**A.** < 20%

**Q.** With `Cc1c(CC(=O)OCCO)cc(-c2ccc(S(C)(=O)=O)cc2)n1-c1ccc(F)cc1` as the molecule, how does the inhibition read?
**A.** < 20%

**Q.** For `Cc1c(CC(=O)N[C@@H](CO)C(=O)O)cc(-c2ccc(S(C)(=O)=O)cc2)n1-c1cccc(F)c1`, which inhibition is on record?
**A.** < 20%

**Q.** For `Cc1c(CCOCCCO[N+](=O)[O-])cc(-c2ccc(S(C)(=O)=O)cc2)n1-c1ccccc1`, which inhibition is on record?
**A.** < 20%

**Q.** For `Cc1c(CC(=O)OCCCCO[N+](=O)[O-])cc(-c2ccc(S(C)(=O)=O)cc2)n1-c1ccc(F)cc1`, which inhibition is on record?
**A.** < 20%

**Q.** With `Cc1c(CCOCCO)cc(-c2ccc(S(C)(=O)=O)cc2)n1-c1ccc(F)c(F)c1` as the molecule, how does the inhibition read?
**A.** < 20%

**Q.** For `CSc1ccc(-n2c(-c3ccc(S(C)(=O)=O)cc3)cc(CC(=O)OCCCO[N+](=O)[O-])c2C)cc1`, which inhibition is on record?
**A.** < 20%

**Q.** Which inhibition does the source give for `COc1ccc(-n2c(-c3ccc(S(C)(=O)=O)cc3)cc(CC(=O)OCCO)c2C)cc1` here?
**A.** < 20%

**Q.** Which inhibition does the source give for `COc1ccc(-n2c(-c3ccc(S(C)(=O)=O)cc3)cc(CC(=O)OCCCO[N+](=O)[O-])c2C)cc1` here?
**A.** < 20%

**Q.** With `Cc1c(CC(=O)OCCCO)cc(-c2ccc(S(C)(=O)=O)cc2)n1-c1cccc(F)c1` as the molecule, how does the inhibition read?
**A.** < 20%

**Q.** With `CSc1ccc(-n2c(-c3ccc(S(C)(=O)=O)cc3)cc(CC(=O)OCCCCO)c2C)cc1` as the molecule, how does the inhibition read?
**A.** < 20%

**Q.** With `Cc1c(CC(=O)OCCO)cc(-c2ccc(S(C)(=O)=O)cc2)n1-c1ccccc1` as the molecule, how does the inhibition read?
**A.** < 20%

**Q.** Which inhibition does the source give for `Cc1c(CC(=O)OCCO)cc(-c2ccc(S(C)(=O)=O)cc2)n1-c1cccc(F)c1` here?
**A.** < 20%

**Q.** With `Cc1c(CC(=O)OCCO[N+](=O)[O-])cc(-c2ccc(S(C)(=O)=O)cc2)n1-c1ccc(F)cc1` as the molecule, how does the inhibition read?
**A.** < 20%

**Q.** Which inhibition does the source give for `CSc1ccc(-n2c(-c3ccc(S(C)(=O)=O)cc3)cc(CC(=O)OCCO)c2C)cc1` here?
**A.** < 20%

test system: Liver; experiment: Induction of nitric oxide release in rat liver assessed as increase in nitrite levels at 1 mM by amperometric method; assay type: functional, tissue-based; details: TDE = time-dependent effect

**Q.** With `COc1ccc2cc([C@H](C)C(=O)OCCCCO[N+](=O)[O-])ccc2c1` as the molecule, how does the Activity read?
**A.** Tde

**Q.** For `Cc1c(CCOCCCO[N+](=O)[O-])cc(-c2ccc(S(C)(=O)=O)cc2)n1-c1cccc(F)c1`, which Activity is on record?
**A.** Tde

test system: Liver; experiment: Induction of nitric oxide release in rat liver assessed as time require for amount of nitrite release by test compound equal to half its maximum release at 1 mM by amperometric method; assay type: functional; details: not given

**Q.** With `Cc1c(CCOCCCO[N+](=O)[O-])cc(-c2ccc(S(C)(=O)=O)cc2)n1-c1cccc(F)c1` as the molecule, how does the T1/2 read?
**A.** 1.41 h

**Q.** For `Cc1c(CCOCCO[N+](=O)[O-])cc(-c2ccc(S(C)(=O)=O)cc2)n1-c1ccc(F)c(F)c1`, which T1/2 is on record?
**A.** 1.14 h

**Q.** For `O=C(NCCO[N+](=O)[O-])c1cccnc1`, which T1/2 is on record?
**A.** 0.463 h

**Q.** Which T1/2 does the source give for `Cc1c(CCOCCO[N+](=O)[O-])cc(-c2ccc(S(C)(=O)=O)cc2)n1-c1cccc(F)c1` here?
**A.** 1.01 h

**Q.** For `Cc1c(CCOCCO[N+](=O)[O-])cc(-c2ccc(S(C)(=O)=O)cc2)n1-c1ccc(F)cc1`, which T1/2 is on record?
**A.** 0.713 h

**Q.** For `Cc1c(CC(=O)OCCO[N+](=O)[O-])cc(-c2ccc(S(C)(=O)=O)cc2)n1-c1ccc(F)cc1`, which T1/2 is on record?
**A.** 1.15 h

test system: not listed separately; experiment: Vasorelaxing effect in Wistar rat thoracic aorta ring assessed as reduction of KCl-induced contractile tone at 10 uM in presence of guanylate cyclase inhibitor ODQ1; assay type: functional; details: not given

**Q.** Which Activity does the source give for `Cc1c(C(N)C(=O)OCCCO[N+](=O)[O-])cc(-c2ccc(S(C)(=O)=O)cc2)n1-c1ccc(F)cc1` (racemic) here?
**A.** Active

**Q.** Which Activity does the source give for `CSc1ccc(-n2c(-c3ccc(S(C)(=O)=O)cc3)cc(CC(=O)OCCCCO[N+](=O)[O-])c2C)cc1` here?
**A.** Active

**Q.** For `Cc1c(C(N)C(=O)OCCCCO[N+](=O)[O-])cc(-c2ccc(S(C)(=O)=O)cc2)n1-c1ccc(F)cc1` (racemic), which Activity is on record?
**A.** Active
